What all share (format): cell-based, mice
Assay [1] has as its system MRL/lpr Mφs. Kind of assay: Lysosome acidification after IgG-IC stimulation, ratiometric flow cytometry (relative phagosomal pH). The conditions noted are these: MRL/lpr Mφs/BMMFs stimulated with IgG-ICs; inhibitor added 2 hours prior and left on. How it is done: (§1) FIGS. 6A-6B. […] (6A). BMMφs from B6 and MRL/lpr mice were stimulated with IgG-ICs±TGX-221 (p110β), IC87114 (p110δ), or Torin1 (mTorC1/C2), and ratiometric flow cytometry was used to quantify the relative phagosomal pH. (6B). Cells were pre-treated with drugs (for 2 hr) and given IgG-ICs. IgG-ICs were removed after 2 hr. Cells remained on drug for the duration of the experiment. At 72 hrs, levels of surface bound IgG-ICs were analyzed by flow cytometry. All values are normalized to B6 untreated. n=3-7.
FIGS. 9A-9C. […] (9A). BMMφs (left panel) or splenic CD11b+ myeloid cells from B6 and MRL/lpr (right panel) were stimulated with IgG-ICs±SM-PEG (1, 2) (5 μg/mL) or control SM-PEG […] (5 μg/mL), and ratiometric flow cytometry was used to quantify the relative phagosomal pH. For internal control, cells were treated with concanamycin A (CMA) 2 hrs prior to IgG-ICs treatment (T0+CMA) to inhibit lysosomal pH change. 2-7 mice, >2 experiments. (9B). BMMφs (left panel) or splenic CD11b+ myeloid cells (right panel) were stimulated with SM-PEG (1, 2) or control SM-PEG (2, 1), or left unstimulated for 30 min or 60 min. At each time points, fixed cells were analyzed for surface bound nucleosomes. 2 mice, 2 experiments. (9C). BMMφs were stimulated with IgG-ICs±SM-PEG(1, 2) (5 μg/mL) for 1 hr, then pAKT (Ser/Thr) and pSHIP1 levels were assessed by flow cytometry. Phospho-proteins were normalized to isotype controls and the levels of total protein. 4 mice, 4 experiments.
The acidotropic dye LysoSensor™ Yellow/Blue can be used to quantify the pH or lysosomes using ratiometric imaging. […] For this adaptation, we loaded cells with an acidotropic dye and concurrently analyzed cells by microscopy (with pH standards) and flow cytometry. […]
Cells were incubated (37° C., 5% CO2) for 2 hours prior to the addition of 40 μL of IgG-ICs in R10 media (as above). […] At each time points, LysoSensor™ (2 mg/mL) was added and incubated for 15 min, then, analyzed by flow cytometry. […] Relative pH was quantified by ratioing the MFIs from the emission channels (450/20 nm, 585/42 nm) (normalized to concanamycin A control). […]
For orientation: Flow cytometry measures light scatter and fluorescence of single cells or particles in a stream.

In assay [2] the test system is MRL/lpr Mφs. Kind of assay: Recycling of IgG-IC flow cytometry (surface bound IgG-ICs). The conditions noted are these: pre-treated with drugs 2 hr, surface IgG-ICs at 72 hrs. How it is done:
as §1
Cells (0.25×10^6) were rested in R10 media for 1 hr at 37° C. prior to the addition of any reagents. IgG-ICs were added, incubated for given duration, and removed at each time points. […]
BMMφs were incubated (37° C., 5% CO2) with 40 μL Alexa Fluor® 488-labeled IgG-ICs in R10 media (as above). To quantify surface bound ICs at 0 hours, phagocytic uptake was impaired by culturing with IgG-ICs on ice for 2 hours. […] One sample was incubated with an anti-Alexa Fluor® 488 antibody (quenches Alexa Fluor® 488 fluorescence), while the other sample was left in FACS media for 30 min on ice. […] Surface bound IgG-ICs were calculated by subtracting the MFI of the quenched sample (intracellular IgG-ICs) from the MFI of the unquenched sample (total IgG-ICs). […]

The test system of another assay is MRL/lpr BMMφ. The assay can be described thus: mTOR localization by confocal imaging. The conditions noted are these: MRL/lpr BMMφs; Torin1 250 ng/mL for 2 hrs. As for the experimental part:
FIGS. 5A-5B. Localization of mTOR is defective in MRL/lpr BMMφ. (5A-5B). Unstimulated BMMφs cultured±Torin1 (250 ng/mL) for 2 hrs were examined for mTOR localization with CD11b by confocal imaging. Colocalization of mTOR to membrane (CD11b) is quantitated by mander's coefficient (5A). Total cellular mTOR levels were quantitated using ImageJ software (5B); 3 exp, 2-3 mice, 10-29 cells.
BMMφs were cultured with IgG-ICs in R10 media at 37° C. For measuring lipid rafts fluorescently labeled CTx was added to the culture 30 min prior to fixation. For the nuclear stain, hoechst was added 15 min prior to fixation. Mφs were fixed with 2% paraformaldehyde, then incubated at 4° C. for 15 min. Cells were blocked in 2.4G2 for 30 min at 4° C. in FACs media (PBS with 2% FBS, 0.02% NaN3), washed, and stained with primary and corresponding secondary antibodies in permeabilization buffer (PBS with 0.05% Saponin and 0.5% BSA) for 30 min at 4° C. Mφs were imaged in FACs media or resuspended in FluorSave™ and imaged. […] Data were analyzed using ImageJ. Colocalization was measured by calculating the Mander's coefficient (colocalized pixels/total fluorescent pixels) in all the cells imaged.

For a further assay, the system named is B6 MFs. Kind of assay: Recycling of IgG-ICs in B6 MFs treated with concanamycin A. How it is done: BMMφs were incubated (37° C., 5% CO2) with 40 μL Alexa Fluor® 488-labeled IgG-ICs in R10 media (as above). To quantify surface bound ICs at 0 hours, phagocytic uptake was impaired by culturing with IgG-ICs on ice for 2 hours. This was sufficient to allow the ICs to bind to the surface of the cell but not be phagocytosed. For all other time points, cells were incubated (37° C., 5% CO2) for 2 hours, then media was replaced to remove all unbound ICs. At indicated time points, cells were blocked in 2.4G2 for 30 min on ice in FACS media, washed, and split into 2 samples. One sample was incubated with an anti-Alexa Fluor® 488 antibody (quenches Alexa Fluor® 488 fluorescence), while the other sample was left in FACS media for 30 min on ice. Both samples were washed and fixed with 2% paraformaldehyde and incubated at 4° C. for 15 min. Surface bound IgG-ICs were calculated by subtracting the MFI of the quenched sample (intracellular IgG-ICs) from the MFI of the unquenched sample (total IgG-ICs). Values were normalized to B6 0 hr.

Molecules are shown by their SMILES. “Also recorded” adds a separate entry of the source.

Take `Cc1ccccc1-n1c(Cn2cnc3c(N)ncnc32)nc2cccc(C)c2c1=O` [IC87114]: the lysosome acidification entry in the assay with MRL/lpr Mφs [1] is “restored lysosome acidification to levels comparable to B6; also recorded: restored lysosomal acidification”. Also, the “recycling of IgG-ICs (surface bound IgG-ICs)” value in the assay with MRL/lpr Mφs [2] is “prevented the recycling of IgG-ICs”.
The corresponding values for `Cc1cc(C(C)Nc2ccccc2)c2nc(N3CCOCC3)cc(=O)n2c1` (stereo not shown) [TGX-221] are “restored lysosome acidification to levels comparable to B6; also recorded: restored lysosomal acidification” and “prevented the recycling of IgG-ICs”.
Take `CCC(=O)N1CCN(c2ccc(-n3c(=O)ccc4cnc5ccc(-c6cnc7ccccc7c6)cc5c43)cc2C(F)(F)F)CC1` [Torin1]: in the assay on MRL/lpr Mφs [1], the lysosome acidification result is “restored lysosome acidification to levels comparable to B6; also recorded: restored lysosomal acidification”. Moreover, the mTOR localization entry in the assay on MRL/lpr BMMφ was “restored mTOR to a cytosolic location”.
Take `C/C=C/[C@H]1O[C@@](O)([C@@H](C)[C@H](O)[C@H](C)[C@H]2OC(=O)/C(OC)=C/C(C)=C/[C@@H](C)[C@@H](O)[C@@H](CC)[C@@H](O)[C@H](C)C/C(C)=C/C=C/[C@@H]2OC)C[C@@H](O[C@H]2C[C@@H](O)[C@H](OC(N)=O)[C@@H](C)O2)[C@@H]1C` [concanamycin A]: the “recycling of IgG-ICs” value in the assay on B6 MFs is on record as “promotes the recycling of IgG-ICs”.

The values above are taken from patent publication US20250109216A1, “COMPOSITIONS AND METHODS FOR CROSSLINKING FC RECEPTORS” (The University of North Carolina at Chapel Hill, priority 2016, published 2025).
